# Test results reported in patent publication USRE40862E1, “Gossypolone for the treatment of cancer” (priority 1990, dated 2009).
# Values joined by “and” are separate entries in the source; they are usually repeats but may differ in a detail not shown here. Equal entries are not always repeated. “Also recorded” adds a separate entry of the source.
# Legend:
# [1] = system: adrenocortical carcinoma; assay: Previous therapy of the patient with adrenocortical carcinoma; type: in vivo, human; conditions: person, hepatic metastases, before gossypol
# [2] = system: SW-13 cells; assay: In vitro gossypol treatment: SW-13 cell proliferation; type: cell-based, human; conditions: 5 and 50 uM gossypol, prolonged exposure (1-6 days)
# Protocol: SW-13 cells were seeded (1×10^4 cells) into 25 cm^2 tissue culture flasks in Dulbecco's minimal Eagle's medium supplemented with fetal calf serum (10%), 100 ug/ml streptomycin, 100 units/ml penicillin, and 2 mM glutamine.
# Sw-13 cells were seeded in a 25-cm^2 tissue culture flask (Costar, Cambridge, Mass.) at densities of 1×10^4 cells/5 ml of Dulbecco's minimal Eagle's medium, supplemented with 10% fetal calf serum, 100 ug/ml streptomycin, 100 units/ml penicillin, and 2 mM glutamine. The cells were grown in a humidified, 37° C. incubator with a 5% CO2/95% air atmosphere. A gossypol stock solution in absolute ethanol was added to the culture medium to yield final concentrations of 0, 0.5, 5, and 50 uM gossypol with a 0.1% final ethanol concentration. After 1, 2, 4, or 6 days of incubation, the culture medium containing a few floating cells was removed. Adherent cells were typsinized (0.1% trypsin, w/v) and counted using a hemocytometer. Cell viability was determined by trypan blue exclusion.
# [3] = system: SW-13 human adrenocortical carcinoma; assay: Gossypol in SW-13 tumor bearing nude mice (preexisting tumors); type: in vivo; conditions: for Mean tumor size (mean ± SE): length×width; for Total deaths / Prevalence of tumor: preexisting tumors
# Protocol: Nude mice (Charles River, Kingston, N.Y.) weighing 20-35 g were caged in a temperature-controlled (26-28° C.), 12 h/12 h light/dark animal room. A microporous cage bonnet served as an effective protective barrier between the animal and the outside environment. In addition, the room was continuously purged with […]. The cages, feeders, and water bottles were designed to make standard mouse chow and water readily available while minimizing the opportunity for the transfer of communicable pathogens.
# Another experiment was designed wherein 48 adult male nude mice weighing 25-35 g were injected s.c. with 2×10^6 SW-13 cells. One month later, the animals were divided into two groups of 24. There were 7 nude mice without visible tumors in each group. The gossypol treated animals received 30 mg gossypol acetic acid/kg body weight/day whereas control animals were fed an equal volume of carrier. Body weigths and tumor sizes (lengths×width, cm^2) were measured weekly. During the 12th week of treatment, 5 control animals died. Since it appeared unlikely that the remaining control animals would survive for another week, they were then sacrificed. Autopsies were performed on all animals including those that died during the study period. Internal organs were examined for the presence of gross tumor.
# Data are expressed as the mean±SD unless otherwise indicated. Statistical comparisons were made using an unpaired Student's t test.
# In this experiment, nude mice had been given s.c. injections of SW-13 adrenocortical carcinoma 1 month prior to initiation of the treatment with either gossypol or carrier.
# [4] = mouse; Rao et al. (1985); cited from earlier work
# [5] = system: cancers; conditions: cited from earlier work
# [6] = clinical; conditions: human, in vivo
# Protocol: (§1) Gossypol acetic acid, 10 mg compressed tablet, was given orally at a dose of 20 mg/d which was increased by 10 mg/d every three days to a dose of 50 mg/d.
# [7] = system: metastatic adrenocortical carcinoma; assay: Phase 1 clinical trial of oral gossypol for adrenocortical cancer
# Protocol: as §1
# [8] = patient 26, lung, liver, dose 70, 3 weeks
# [9] = patient 27, abdomen, pelvis, dose 50, 6 weeks
# [10] = patient 34, abdomen, liver, dose 40-50, 12 weeks
# [11] = patient 52, abdomen, dose 40, 6 weeks
# [12] = person, after three weeks, gossypol acetic acid tablets 20 to 50 mg/d oral
smiles,measurement,setting,value
Cc1ccc(C(=O)Nc2ccc(S(=O)(=O)O)c3cc(S(=O)(=O)O)cc(S(=O)(=O)O)c23)cc1NC(=O)c1cccc(NC(=O)Nc2cccc(C(=O)Nc3cc(C(=O)Nc4ccc(S(=O)(=O)O)c5cc(S(=O)(=O)O)cc(S(=O)(=O)O)c45)ccc3C)c2)c1 [Suramin],tumor course under treatment,[1],progressed
"Cc1cc2c(C(C)C)c(O)c(O)c(C=O)c2c(O)c1-c1c(C)cc2c(C(C)C)c(O)c(O)c(C=O)c2c1O [Gossypol, gossypol]",effect on proliferation of SW-13 cells,[2],inhibited cell proliferation
same,"total tumor burden (cumulative surface area), control relative to gossypol group","[3]; 12th week, FIG. 2",twice
same,effect on body weights,[3]; 12 weeks of gossypol treatment,no significant effect
same,body weight at the end of the study period (mean ± SD),"[3]; after 12 weeks, 30 mg/kg/day oral",30.9 ± 3.6 g
same,number of deaths in the gossypol-treated group,"[3]; during 12 weeks of treatment, group of 24, 10 deaths in control group",two
same,Mean tumor size (mean ± SE),"[3]; week 0, 30 mg/kg/day oral",0.08 ± 0.02 cm^2
same,Total deaths,"[3]; week 0, 30 mg/kg/day oral",0%
same,Prevalence of tumor,"[3]; week 0, 30 mg/kg/day oral, 30 mg/kg/day",72%
same,Prevalence of tumor,"[3]; week 0, 30 mg/kg/day oral, listed as gossypol, 30 mg/kg/day",71%
same,Mean tumor size (mean ± SE),"[3]; week 1, 30 mg/kg/day oral",0.07 ± 0.02 cm^2
same,Prevalence of tumor,"[3]; week 1, 30 mg/kg/day oral",63%
same,Total deaths,"[3]; week 1, 30 mg/kg/day oral",0%
same,Mean tumor size (mean ± SE),"[3]; week 2, 30 mg/kg/day oral",0.12 ± 0.04^a cm^2
same,Prevalence of tumor,"[3]; week 2, 30 mg/kg/day oral",50%
same,Total deaths,"[3]; week 2, 30 mg/kg/day oral",0%
same,Mean tumor size (mean ± SE),"[3]; week 3, 30 mg/kg/day oral",0.15 ± 0.05^a cm^2
same,Prevalence of tumor,"[3]; week 3, 30 mg/kg/day oral",54%
same,Total deaths,"[3]; week 3, 30 mg/kg/day oral",0%
same,Mean tumor size (mean ± SE),"[3]; week 4, 30 mg/kg/day oral",0.20 ± 0.07^a cm^2
same,Prevalence of tumor,"[3]; week 4, 30 mg/kg/day oral",50%
same,Total deaths,"[3]; week 4, 30 mg/kg/day oral",0%
same,Mean tumor size (mean ± SE),"[3]; week 5, 30 mg/kg/day oral",0.28 ± 0.08^a cm^2
same,Prevalence of tumor,"[3]; week 5, 30 mg/kg/day oral",58%
same,Total deaths,"[3]; week 5, 30 mg/kg/day oral",0%
same,Mean tumor size (mean ± SE),"[3]; week 6, 30 mg/kg/day oral",0.32 ± 0.10^a cm^2
same,Prevalence of tumor,"[3]; week 6, 30 mg/kg/day oral",58%
same,Total deaths,"[3]; week 6, 30 mg/kg/day oral",0%
same,Mean tumor size (mean ± SE),"[3]; week 7, 30 mg/kg/day oral",0.38 ± 0.12^a cm^2
same,Prevalence of tumor,"[3]; week 7, 30 mg/kg/day oral",58%
same,Total deaths,"[3]; week 7, 30 mg/kg/day oral",0%
same,Mean tumor size (mean ± SE),"[3]; week 8, 30 mg/kg/day oral",0.45 ± 0.14^a cm^2
same,Prevalence of tumor,"[3]; week 8, 30 mg/kg/day oral",58%
same,Total deaths,"[3]; week 8, 30 mg/kg/day oral",0%
same,Mean tumor size (mean ± SE),"[3]; week 9, 30 mg/kg/day oral",0.50 ± 0.15^a cm^2
same,Prevalence of tumor,"[3]; week 9, 30 mg/kg/day oral",54%
same,Total deaths,"[3]; week 9, 30 mg/kg/day oral",0%
same,Mean tumor size (mean ± SE),"[3]; week 10, 30 mg/kg/day oral",0.59 ± 0.18^a cm^2
same,Prevalence of tumor,"[3]; week 10, 30 mg/kg/day oral",54%
same,Total deaths,"[3]; week 10, 30 mg/kg/day oral",0%
same,Mean tumor size (mean ± SE),"[3]; week 11, 30 mg/kg/day oral",0.68 ± 0.21^a cm^2
same,Prevalence of tumor,"[3]; week 11, 30 mg/kg/day oral",54%
same,Total deaths,"[3]; week 11, 30 mg/kg/day oral",0%
same,Mean tumor size (mean ± SE),"[3]; week 12, 30 mg/kg/day oral",0.81 ± 0.25 (n = 22) cm^2
same,Prevalence of tumor,"[3]; week 12, 30 mg/kg/day oral",54%
same,Total deaths,"[3]; week 12, 30 mg/kg/day oral",8.3%
same,higher doses shown to be lethal,[4],0.8 mg/mouse and 1.6 mg/mouse
same,anti-tumor effective dose in animals,[5],~10 mg/kg/day
same,concentration at 6 weeks,"[6]; female, oral, 40 mg/d",4.44 ng/mL
same,concentration at 3 weeks,[6]; male,10.2 ng/mL
same,concentration at 12 weeks,"[6]; male, oral",2.91 ng/mL
same,concentration at 6 weeks,"[6]; male, oral, 50 mg/d",2.29 ng/mL
same,tumor responses among the five patients,[7]; five patients of Table 3,"two exhibited partial tumor responses, one has stable disease, and two showed tumor progression"
same,dose above which toxicity begins to occur in humans,[7]; humans,1 to 2 mg/kg/day
same,dose at which the anti-tumor effect occurs in humans,"[7]; humans, approximately one tenth of dose effective in animals",~1 mg/kg/day
same,side effects in treatment of human cancers,"[7]; humans, compared to conventional therapies","mild fatigue, muscle tremor, dry mouth, dry skin, and occasional nausea"
same,Response,[7]; [8],Pro-
same,Side Effects,[7]; [8],Xerostomia; also recorded: Nausea; also recorded: Trans-
same,Response,[7]; [9],Pro-
same,Side Effects,[7]; [9],Xerostomia; also recorded: Fatigue
same,Response,[7]; [10],Stabili-
same,Side Effects,[7]; [10],Xerostomia; also recorded: Fatigue; also recorded: Nausea
same,Response,[7]; [11],Partial
same,Side Effects,[7]; [11],Xerostomia; also recorded: Fatigue; also recorded: Nausea
same,side effects experienced during gossypol treatment,"[7]; person, 20 to 50 mg/d oral","fatigue, xerostomia, tremor, and trasnminitis"
same,clinical symptoms,"[7]; person, after three weeks of treatment","improvement in abdominal pain, ascites, and pulmonary function"
same,decrease in the size of the hepatic metastases on CT scans,[7]; [12],> 50%
same,pulmonary metastases on CT scans,[7]; [12],complete resolution
